# Assay results taken from patent US20040077080A1, “Compositions and methods for induction of proteins involved in xenobiotic metabolism” (priority 2000, published 2004).
# Like-named read-outs stand apart in the source and are kept apart here.
# Experiments:
# [1] = tested on: AhR (dioxin response elements); experiment: DRE12-6 luciferase assay (HepG2 with dioxin response elements)
# Procedure: FIG. 25A: DRE12-6 cells were treated for 28 hours with the indicated concentrations of phytochemicals. FIG. 25B: DRE12-6 cells were treated with the indicated chemicals for 3 hours prior to co-treatment with 2,3,7,8-tetrachlorodibenzo-p-dioxin (TCDD) for 28 hours.
# Chemical treatment was followed by cell lysis and luciferase measurement.
# FIG. 26A: DRE12-6 cells were inoculated into a 96-well plate (2×10^4 cells per well) a day prior to treatment and treated for 28 hours with the indicated concentrations of the environmental contaminants (PAHs, PAH derivatives, PCBs, or pesticide derivatives). FIG. 26B: DRE12-6 cells were treated with the indicated chemicals for 3 hours prior to co-treatment with 2,3,7,8-tetrachlorodibenzo-p-dioxin (TCDD) for 28 hours.
# The luciferase-SV40 promoter vector, with the three copies of the dioxin response elements, was transfected into HepG2 cells, which were put under neomycin selection to yield the stable cell line DRE12-6, for detection of AhR-dependent transactivation.
# Luciferase assay: Luciferase assays using the LucLite system (Packard Instrument Co., Meriden, Conn.) were performed according to the manufacturer's instructions. Results were expressed as relative light units or fold induction, relative to DMSO-treated control cells. The data represent the mean±standard deviation of experiments performed in duplicate.
# [2] = tested on: PXR / CYP3A4 response elements; experiment: DPX2 (Hepg-hPXR/3A4-Luc) luciferase assay; conditions: DPX2 cells, 48 hours
# Procedure: Compounds tested included known PXR ligands and conventional drugs (FIG. 30A), environmental contaminants (FIG. 30B), and herbal supplements (FIG. 30C). DPX2 cells were cultured with DMEM supplemented with 10% fetal bovine serum and neomycin. Cells were inoculated into 96-well plate at a density of 1×10^4 cells per well the day before treatment.
# 2. […] In addition, a distal enhancer module, XREM, was amplified by PCR using the sense primer
# The resulting amplified XREM fragment was ligated upstream of PXRE containing a 3A4 promoter, into a luciferase vector.
# A neomycin resistance gene was generated by PCR amplification using the pcDNA3.1 plasmid (Invitrogen, Carlsbad, Calif.), which encodes a neomycin resistant gene, as a DNA template. The sense primer had the sequence […] Amplification was followed by SalI digestion of the PCR product, and the resulting fragment ligated to the SalI-digested PGL3-promoter plasmid, which contains luciferase as a reporter gene. […] The CYP3A4 cell line DPX2 (Hepg-hPXR/3A4-Luc) was established by double transfection with the PXR expression plasmid and the luciferase plasmid containing CYP3A4 PXR response element under selection with both neomycin and hygromycin.
# [3] = tested on: PXR / mdr1(dr4) response element; experiment: Hep-PXR/Pgp-Luc stable cell luciferase assay; conditions: 48 hours; for strength of luciferase induction (in words): Hep-PXR/PgpLuc cells, omeprazole 100 micromoles per liter versus rifampicin 10 micromoles per liter; for dose dependence of luciferase induction (in words): Hep-PXR/Pgp-Luc cells
# Procedure: (§1) FIG. 35 depicts dose-response behavior to various PXR activators in stable cell lines overexpressing PXR and harboring DR4 response element. FIG. 35A: Results are shown for the stable cell line Hep-PXR/PgpLuc. FIG. 35B: Results are shown for the stable cell line Caco-PXR/PgpLuc.
# (§2) Cells were exposed to the test compounds for 48 hours at the concentrations indicated.
# FIG. 36 depicts the effect of environmental and botanical chemicals on luciferase activity in the stable cell line Hep-PXR/PgpLuc. Cells were inoculated into 96-well plates at a density of 2×10^4 cells per well. After overnight recovery, cells were treated with the test compounds at the concentrations indicated for 48 hours.
# (§3) Establishment of stable transformants containing both PXR and reporter plasmid and development of high throughput bioassay for PXR-dependent transactivation: The stable transformants Hep-PXR/mdr1(dr4)-Luc and Caco-PXR/mdr1(dr4)-Luc cell lines were generated from the parental cell lines HepG-PXR and Caco-PXR, respectively, according to the following procedure. The parental cell lines HepG-PXR and Caco-PXR, which overexpress PXR, were stably transfected with the luciferase reporter plasmid mdr1(dr4)-Luc. The transfected cells were cultured in DMEM (HepG-PXR cells) or in IMEM (Caco-PXR cells), both media supplemented with 10% fetal bovine serum and neomycin (700 micrograms per milliliter).
# (§4) For the induction assay, stable transformants were seeded in 96-wells plates at a density of 1×10^4 cells per well and allowed to recover overnight. Plates were treated with test compounds at varying concentrations, using 3 replicates per dose. After 48 hours of exposure to the test compound, cells were washed with phosphate buffered saline, lysis buffer was applied to the wells, and luciferase substrate added. Following 10 minutes for light adaptation, luminescence was monitored according to the manufacturer's instructions (Packard kit, Biomed).
# [4] = tested on: CYP1A1 mRNA; experiment: Northern blot of CYP1A1 mRNA in HepG2 cells
# Procedure: HepG2 cells were obtained from American Type Culture Collection (ATCC). Cells were grown in DMEM (Gibco/BRL). Twenty-four hours after cells were plated and grown to confluency, they were treated with one of the bioflavonoids, TCDD, or beta-naphthoflavone (Sigma). All inducers were dissolved in DMSO and this solvent was added to control cells at 0.1%.
# (§5) Total RNA from hepatocytes or HepG2 cells was isolated using Trizol™ reagent (Gibco BRL Products, Gaithersburg, Md.) and quantified by measuring absorbance at 260 nm; purity was assessed by determining the 260/280 nm ratio. […] A cDNA probe for human 18S RNA probe (Ambion, Austin Tex.) was used to normalize the amount of RNA loaded in each lane. […] Autoradiographs of Northern blots were quantified by densitometry using a Model GS-670 Imaging Densitometer equipped with Molecular Analysis/Mac version 1.1.1. Image Analysis software (BioRad laboratories, Hercules, Calif.) or by scaning autoradiograms with a ScanMaker II (Microtek) and digitized with Un-Scan-It software (Silk Scientific, Orem Utah). Exposure times used were in the linear range of the film, Kodak XAR-5.
# [5] = tested on: CYP1A1 mRNA; experiment: Northern blot of CYP1A1 mRNA in primary cultures of human hepatocytes (Example II); conditions: hepatocytes
# Procedure: Six well plates containing human hepatocytes were obtained from the Liver Tissue Procurement and Distribution System (LTPADS, University of Minnesota, Minneapolis, Minn.). […] All inducers were dissolved in DMSO and added to media at a 0.1% final concentration of this reagent. After treatment, media was removed and cells harvested for RNA isolation.
# as §5
# [6] = tested on: MDR1 P-glycoprotein mRNA; experiment: Northern blot of MDR1 P-glycoprotein expression (Example VI)
# Source text: FIG. 31 depicts MDR1 gene expression in LS174T cells as analyzed by Northern blot. […] Total RNA from the colon adenocarcinoma cell line LS174T was isolated and fractionated on a 1% formaldehyde gel and transferred onto a nylon membrane. The RNA blot was hybridized to ^32P-labeled MDR1 cDNA probe (top panel) or 18s rRNA probe for normalization of RNA loading on the gel (bottom panel).
# FIG. 32A: Lanes 1 and 2, primary human hepatocytes; lanes 3 and 4, LS174T cells. FIG. 32B: Lanes 1 and 2, HepG2 cells; lanes 3 and 4, HepG2 that overexpress PXR (Hepg-PXR cells). FIG. 32C: Lanes 1 and 2, Caco-2; lanes 3 and 4, Caco-2 cells that overexpress PXR (Caco-PXR cells).
# Total RNA from the colon adenocarcinoma cell line LS174T was isolated and fractionated on a 1% formaldehyde gel and transferred onto a nylon membrane. The RNA blot was hybridized to ^32-P-labeled MDR1 cDNA probe (top panels), ^32-P-labeled CYP3A4 cDNA probe (middle panels), or 18s rRNA probe for normalization of RNA loading on the gel (bottom panels).
# FIG. 37 depicts MDR1 gene regulation in response to chrysin as studied by Northern blot analysis. […] Total RNA from the hepatocytes was isolated and fractionated on a 1% formaldehyde gel and transferred onto a nylon membrane. The RNA blot was hybridized to ^32-P-labeled MDR1 cDNA probe (top panels), ^32P-labeled CYP3A4 cDNA probe (middle panels), or 18s rRNA probe for normalization of RNA loading on the gel (bottom panels).
# Northern Blot analysis for MDR1 P-glycoprotein and CYP3A4 expression: Total RNA was prepared from cells (primary hepatocytes, LS174T, HepG2, or Caco-2) using Trizol reagent (Invitrogen, Carlsbad, Calif.). For Northern blots, 15 micrograms of total RNA was fractionated on a 1% formaldehyde gel and transferred onto a nylon membrane by capillary transfer. A 530-base pair fragment of MDR1 cDNA was obtained from PCR cloning using the sense primer […] The resulting fragment was ^32P-labeled by random priming (Invitrogen, Carlsbad, Calif.) for use as an MDR1 probe. […] All constructs and cDNAs were subjected to sequence analysis. Hybridization was performed with the ExpressHyb system according to the manufacturer's instructions (Clontech, Palo Alto, Calif.).
# [7] = tested on: human CYP1A1 promoter (Ah receptor); experiment: 101L cell luciferase assay (HepG2 with human CYP1A1 promoter-luciferase), 96-well; conditions: 101L cells, 18 hours; 1 to 20 micromolar (resveratrol 10, apigenin 5, quercetin and curcumin 20 micromolar); GTE 0.1 milligrams/ml
# Procedure: Cells were initially seeded in flasks containing media without G418. After an overnight incubation the cultures were changed into media containing G418 for antibiotic selection. After three to five days, cells were removed from flasks by trypsinization and replated on either a twenty-four-well plate at a density of 3.5×10^5 cells per well, or a ninety-six-well plate at a density of 7.5×10^4 cells per well, in DMEM media that was replaced with that containing 0.1% FBS and without G418 or indicator (phenol red). The next day, media containing 0.1% FBS and G418 was added to the cultures. […] For the antagonist experiments, cells were co-treated with a flavonoid and two nanomolar TCDD. All inducers were dissolved in DMSO and this reagent was added to control cells at 0.1%. The cells were treated with varous doses and times (six to eighteen hours). After treatment, the media containing the compound was removed by aspiration and replaced with one-hundred microliters per well of DMEM for direct analysis of luciferase activity. Experiments were performed on 101L cells from frozen stocks on the initial derivation and the passage number was limited to thirty.
# Luciferase assays were performed as specified by the manufacturer (LucLite system, Packard Instrument, Meriden, Conn.). Activity was determined using a Packard LumiCount luminometer and results expressed as relative light units or fold increase above control (DMSO treated cells.
# [8] = tested on: CYP1A1 mRNA; experiment: Northern blot of CYP1A1 in primary human hepatocytes (Example V); conditions: hepatocytes
# Source text: The isolated RNA was subjected to Northern blot analysis.
# [9] = tested on: PXR / mdr1(dr4) response element; experiment: Caco-PXR/Pgp-Luc stable cell luciferase assay; conditions: Caco-PXR/Pgp-Luc cells, 48 hours
# Procedure: as §1, §2, §3, §4
# [10] = DRE12-6 cells, test compound 3 hours prior to co-treatment with TCDD for 28 hours
molecule,measurement,setting,value
COc1ccc(C(c2ccc(OC)cc2)C(Cl)(Cl)Cl)cc1 [methoxychlor],effect on TCDD-mediated luciferase induction (in words),[1]; [10],effectively inhibited
same,luciferase response curve (in words),[2],dose-dependent
same,strength of luciferase induction (in words),[3],strongly induced
O=c1cc(-c2ccccc2)oc2ccc3ccccc3c12 [beta-naphthoflavone],"HepG2 CYP1A1 mRNA (%), normalized to TCDD induction",[4],50%
O=c1cc(-c2ccc(O)cc2)oc2cc(O)cc(O)c12 [apigenin],effect on TCDD-mediated luciferase induction (in words),[1],effectively inhibited
same,"CYP1A1 mRNA level Subject B (%), normalized to TCDD induction","[5]; human, 24 h",0%
same,"CYP1A1 mRNA level Subject C (%), normalized to benzanthracene induction","[5]; human, 24 h",3%
same,"CYP1A1 mRNA level Subject D (%), normalized to TCDD induction","[5]; human, 24 h",0%
same,"HepG2 CYP1A1 mRNA (%), normalized to TCDD induction",[4]; human,1%
Oc1ccc(C=Cc2cc(O)cc(O)c2)cc1 [resveratrol],"CYP1A1 mRNA level Subject A (%), normalized to TCDD induction","[5]; human, 24 h",5%
same,"CYP1A1 mRNA level Subject B (%), normalized to TCDD induction","[5]; human, 24 h",0%
same,"CYP1A1 mRNA level Subject C (%), normalized to benzanthracene induction","[5]; human, 24 h",12%
same,"CYP1A1 mRNA level Subject D (%), normalized to TCDD induction","[5]; human, 24 h",0%
same,"HepG2 CYP1A1 mRNA (%), normalized to TCDD induction",[4]; human,12%
CO[C@H]1/C=C/O[C@@]2(C)Oc3c(C)c(O)c4c(O)c(c(/C=N/N5CCN(C)CC5)c(O)c4c3C2=O)NC(=O)/C(C)=C\C=C\[C@H](C)[C@H](O)[C@@H](C)[C@@H](O)[C@@H](C)[C@H](OC(C)=O)[C@@H]1C [rifampicin],MDR1 P-glycoprotein expression in Hep-PXR stable cells (in words),[6]; human,did not induce MDR1 P-glycoprotein expression further
O=C1C[C@@H](c2ccc(O)cc2)Oc2cc(O)cc(O)c21 [naringenin],"CYP1A1 mRNA level Subject D (%), normalized to TCDD induction","[5]; human, 24 h",0%
same,"HepG2 CYP1A1 mRNA (%), normalized to TCDD induction",[4]; human,0%
Clc1ccccc1C(c1ccccc1)(c1ccccc1)n1ccnc1 [clotrimazole],luciferase response curve (in words),[2],dose-dependent
COc1cc(/C=C/C(=O)CC(=O)/C=C/c2ccc(O)c(OC)c2)ccc1O [curcumin],induction of CYP1A1 mRNA in isolated hepatocytes (in words),[5],did not elicit induction
(−)-epigallocatechin gallate [EGCG],fold induction of CYP1A1-promoter-mediated luciferase activity by flavonoids,[7],negligible effects
"Cc1ccc2cc3c(ccc4ccccc43)c3c2c1CC3 [3-MC, 3-methylcholanthrene]",CYP1A1 induction by Northern blot (in words),[8],maximum induction
same,AhR-mediated luciferase induction (in words),"[1]; DRE12-6 cells, 28 hours",dose-dependent increase
C[C@@]12CCC[C@H]1[C@@H]1CC[C@H]3C[C@@H](O)CC[C@]3(C)[C@H]1CC2 [androstanole],dose dependence of luciferase induction (in words),[9],dose-dependent luciferase induction
same,dose dependence of luciferase induction (in words),[3],dose-dependent luciferase induction
"Clc1cc(-c2ccccc2)c(Cl)c(Cl)c1Cl [2,3,4,5 tetrachlorobiphenyl]",effect on TCDD-mediated luciferase induction (in words),[1]; [10],effectively inhibited
O=c1c(O)c(-c2ccc(O)c(O)c2)oc2cc(O)cc(O)c12 [quercetin],effect on TCDD-mediated luciferase induction (in words),[1],effectively inhibited
same,induction of CYP1A1 mRNA in isolated hepatocytes (in words),[5],did not elicit induction
C[C@@H]1C[C@H]2[C@@H]3CCC4=CC(=O)C=C[C@]4(C)[C@@]3(F)[C@@H](O)C[C@]2(C)[C@@]1(O)C(=O)CO [dexamethasone],dose dependence of luciferase induction (in words),[9],dose-dependent luciferase induction
same,dose dependence of luciferase induction (in words),[3],dose-dependent luciferase induction
same,strength of luciferase induction (in words),[3],Weaker luciferase induction
O=c1c(O)c(-c2ccc(O)cc2)oc2cc(O)cc(O)c12 [kaempferol],effect on TCDD-mediated luciferase induction (in words),[1],effectively inhibited
same,"CYP1A1 mRNA level Subject B (%), normalized to TCDD induction","[5]; human, 24 h",0%
same,"CYP1A1 mRNA level Subject C (%), normalized to benzanthracene induction","[5]; human, 24 h",10%
same,"CYP1A1 mRNA level Subject D (%), normalized to TCDD induction","[5]; human, 24 h",0%
"CC#C[C@]1(O)CC[C@H]2[C@@H]3CCC4=CC(=O)CCC4=C3[C@@H](c3ccc(N(C)C)cc3)C[C@@]21C [RU486, mifepristone]",dose dependence of luciferase induction (in words),[9],dose-dependent luciferase induction
same,strength of luciferase induction (in words),[9],strongly induce
same,MDR1 expression in LS174T cells (in words),"[6]; LS174T cells, 48 hours",effectively induced
same,dose dependence of luciferase induction (in words),[3],dose-dependent luciferase induction
